# US8497371B2, “Pipemidic acid derivative autotaxin inhibitors” (University of Memphis Research Foundation, priority 2009, dated 2013)
# How the values were obtained:
# human NPP6 = target: T1, human NPP6 (Homo sapiens, UniProt Q6UWR7); assay: Determination of NPP6 inhibition (pNPPC substrate); type: biochemical; settings: 10 μM inhibitor
# T1 construct: transfected with human NPP6ex^51 or human NPP7ex expression plasmids; made in house; host or cells: HEK293 cells, transient transfection, pcDNA3.1(+); unconcentrated conditioned medium (CM)
# T1 sequence (Q6UWR7 23-419 limits assumed): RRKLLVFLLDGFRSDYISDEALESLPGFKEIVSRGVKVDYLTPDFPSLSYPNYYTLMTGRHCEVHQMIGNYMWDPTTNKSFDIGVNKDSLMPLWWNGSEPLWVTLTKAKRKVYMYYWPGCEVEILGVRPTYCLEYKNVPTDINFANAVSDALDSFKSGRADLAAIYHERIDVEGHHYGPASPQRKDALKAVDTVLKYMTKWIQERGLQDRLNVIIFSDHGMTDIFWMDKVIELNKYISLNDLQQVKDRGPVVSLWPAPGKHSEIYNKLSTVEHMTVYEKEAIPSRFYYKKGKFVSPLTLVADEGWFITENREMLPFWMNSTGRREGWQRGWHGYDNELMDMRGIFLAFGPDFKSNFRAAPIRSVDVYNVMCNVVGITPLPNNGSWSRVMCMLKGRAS
# Protocol: (§1) Inhibitor selectivity was assayed using p-nitrophenylphosphoryl-choline (pNPPC) (Sigma-Aldrich, St. Louis, Mo.) as substrate for NPP6 and NPP7. The final volume (60 μL) included 20 μL (CM, NPP6 or CCM, NPP7, 20 μL inhibitor (10 μM including 1% DMSO) in assay buffer, and 20 μL pNPPC (10 mM, NPP6 or 1 NPP7) in assay buffer. NPP6 assay buffer contained 500 mM NaCl, 0.05% Triton X-100, 100 mM Tris-HCl (pH 9.0), whereas NPP7 assay buffer was comprised of 50 mM Tris HCl, pH 8.5, 150 mM NaCl, and 10 mM taurocholic acid. However, unlike the published methods, EDTA was not added to the NPP7 assay buffer. All assays were performed in 96-well, half area plates (Corning Inc., Lowell, Mass.) at 37° C. with data collected at 2 minute intervals using a Synergy2 absorbance plate reader (BioTek, Winooski, Vt.). Results are shown at the one hour time point, when all absorbance changes as a function of time were linear. Readings were normalized to vehicle control after subtraction of absorbance in the absence of CM or CCM. Data are shown as the mean±S.D. of at least three wells. All experiments were repeated twice and representative results are shown.
# (§2) Assays were performed with CM or CCM from HEK293 cells transiently transfected with NPP6 and 7 expression plasmids, respectively. HEK293 cells were seeded in Dulbecco's modified Eagle's medium (DMEM) containing 10% fetal bovine serum, 100 U/ml penicillin, 100 μg/ml streptomycin (Hyclone, Logan, Utah), and 2 mM L-glutamine. HEK293 cells were grown overnight at 37° C. under 5% CO2 to 80% confluence. The cells were then transfected with human NPP6ex^51 or human NPP7ex expression plasmids in the pcDNA3.1(+) mammalian vector in the presence of Polyfect Transfection Reagent (Hyclone, Logan, Utah). Six hours after transfection, the culture medium was changed to serum free DMEM containing L-glutamine and cells were incubated for 48 hours. Expressed protein was collected (NPP6 and NPP7) and concentrated ˜10×(NPP7) using 10 kDa molecular weight cutoff filters (Millipore, Beverly, Mass.) in an Amicon pressure cell (Millipore, Beverly, Mass.).
# human NPP7 = target: T2, human NPP7 (Homo sapiens, UniProt Q6UWV6); assay: Determination of NPP7 inhibition (pNPPC substrate); type: biochemical; settings: 10 μM inhibitor
# T2 construct: transfected with human NPP6ex^51 or human NPP7ex expression plasmids; made in house; host or cells: HEK293 cells, transient transfection, pcDNA3.1(+); conditioned medium concentrated about 10x (CCM)
# T2 sequence (Q6UWV6 22-433 limits assumed): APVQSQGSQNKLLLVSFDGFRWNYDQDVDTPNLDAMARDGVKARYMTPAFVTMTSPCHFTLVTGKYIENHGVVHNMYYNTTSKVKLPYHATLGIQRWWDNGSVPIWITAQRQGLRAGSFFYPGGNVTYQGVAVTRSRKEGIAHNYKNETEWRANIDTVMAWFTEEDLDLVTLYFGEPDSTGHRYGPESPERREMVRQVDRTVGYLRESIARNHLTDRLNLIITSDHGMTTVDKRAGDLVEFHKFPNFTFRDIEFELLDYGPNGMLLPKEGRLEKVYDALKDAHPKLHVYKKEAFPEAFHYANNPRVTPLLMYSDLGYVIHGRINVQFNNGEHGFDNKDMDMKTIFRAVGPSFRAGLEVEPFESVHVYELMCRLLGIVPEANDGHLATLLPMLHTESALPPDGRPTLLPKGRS
# Protocol: as §1, §2
# ATX [1] = target: T3, ATX (Homo sapiens, UniProt Q13822); settings: for Inhibition Mechanism: FS-3 substrate
# ATX [2] = target: T3, ATX; assay: ATX inhibition assay with FS-3 substrate; type: biochemical; parameters: conditioned serum-free medium (CCM) from MDA-MB-435 cells as the source of ATX; endogenous in cells; host or cells: MDA-MB-435 cells (about 10x concentrated serum-free conditioned medium); settings: for % Response at 10 μM (FS-3): 10 μM compound, FS-3 hydrolysis normalized to vehicle control (low = strong inhibition), mean ± S.D.; for single dose response comparison by aromatic substituent and position: Table 2, same values as % Response at 10 μM; for inhibition at 10 µM: single dose 10 μM, % inhibition, read-out: inhibition of ATX-mediated hydrolysis of FS-3
# Protocol: ATX inhibition was assayed using the substrate FS-3 (Echelon Biosciences, Inc., Salt Lake City, Utah, USA). The FS-3 assay used ˜10 times concentrated conditioned serum-free medium (CCM) from MDA-MB-435 cells as the source of ATX, while CCM comprised one-third of the total volume.
# All assays were performed in 96-well plates with data read at 1 minute intervals by a Synergy2 system (BioTek, Winooski, Vt.). […] Results are shown at one hour, at which point all fluorescence and absorbance changes as a function of time were linear. All readings were normalized to vehicle control after subtraction of fluorescence in the absence of CCM. Data are shown as the mean±S.D. of at least three wells. All experiments were repeated at least twice and results are shown.
# ATX [3] = target: T3, ATX; assay: biochemical
# [4] = Ki (nM), competitive inhibitors
# [5] = Ki (μM), FS-3 substrate, for mixed mode Ki=IC50 assumed
mechanism of ATX inhibition (ATX [1]),Inhibition Mechanism (ATX [1]),% Response at 10 μM (FS-3) (ATX [2]) [%],single dose response comparison by aromatic substituent and position (ATX [2]),inhibition at 10 µM (ATX [2]) [%],potency relative to the lead compound (ATX [1]),Ki (ATX [3]; [4]) [nM],Ki (ATX [3]; [5]) [nM],IC50 (ATX [2]; FS-3 substrate) [µM],IC50 (ATX [2]; Substrate FS-3 (1 μM)) [µM],Ki (ATX [3]; Ki) [nM],Compound,effect on activity of NPP6 (human NPP6),effect on activity of NPP7 (human NPP7)
mixed-mode,Mixed,32.7 ± 1.3,32.7 ± 1.3,≥ 50,,,,,,,"CCn1cc(C(=O)O)c(=O)c2cnc(N3CCN(C(=S)Nc4ccc(I)cc4)CC3)nc21 [Compound 3, 2-(4-{[(4-iodophenyl)amino]carbonothioyl}-1-piperazinyl)-8-ethyl-5-oxo-5,8-dihydropyrido[2,3-d]pyrimidine-6-carboxylic acid]",None of the compounds affected the activity,None of the compounds affected the activity
competitive,Competitive,28.6 ± 2.0,,≥ 50,at least as potent as the lead compound,30 to 430,430,12.1 ± 2.4,12.1,,"CCn1cc(C(=O)O)c(=O)c2cnc(N3CCN(C(=S)Nc4ccc5nsnc5c4)CC3)nc21 [Compound 7, 2-(4-{[(3-benzothiadiazolphenyl)amino]carbonothioyl}-1-piperazinyl)-8-ethyl-5-oxo-5,8-dihydropyrido[2,3-d]pyrimidine-6-carboxylic acid]",None of the compounds affected the activity,None of the compounds affected the activity
competitive,Competitive,0.3 ± 0.6,0.3 ± 0.6,,at least as potent as the lead compound,30 to 430,,0.9 ± 0.3,0.9 ± 0.3,30,"CCn1cc(C(=O)O)c(=O)c2cnc(N3CCN(C(=S)Nc4cccc(C(F)(F)F)c4)CC3)nc21 [Compound 11, 2-(4-{[(3-trifluoromethylphenyl)amino]carbonothioyl}-1-piperazinyl)-8-ethyl-5-oxo-5,8-dihydropyrido[2,3-d]pyrimidine-6-carboxylic acid]",None of the compounds affected the activity,None of the compounds affected the activity
competitive,Competitive,34.1 ± 3.0,,≥ 50,at least as potent as the lead compound,30 to 430,,4.4 ± 1.5,4.4 ± 1.5,160,"CCn1cc(C(=O)O)c(=O)c2cnc(N3CCN(C(=S)Nc4cc(C(F)(F)F)cc(C(F)(F)F)c4)CC3)nc21 [Compound 18, 2-(4-{[(3,5-bis(trifluoromethyl)phenyl)amino]carbonothioyl}-1-piperazinyl)-8-ethyl-5-oxo-5,8-dihydropyrido[2,3-d]pyrimidine-6-carboxylic acid]",None of the compounds affected the activity,None of the compounds affected the activity
,,48.9 ± 1.1,48.9 ± 1.1,≥ 50,,,,17.7,,,"CCn1cc(C(=O)O)c(=O)c2cnc(N3CCN(C(=S)Nc4ccc(F)cc4)CC3)nc21 [Compound 23, 2-(4-{[(4-fluorophenyl)amino]carbonothioyl}-1-piperazinyl)-8-ethyl-5-oxo-5,8-dihydropyrido[2,3-d]pyrimidine-6-carboxylic acid]",None of the compounds affected the activity,None of the compounds affected the activity
,,40.5 ± 1.0,40.5 ± 1.0,≥ 50,,,,16.1 ± 4.5,,,"CCn1cc(C(=O)O)c(=O)c2cnc(N3CCN(C(=S)Nc4cccc(F)c4)CC3)nc21 [Compound 25, 2-(4-{[(3-fluorophenyl)amino]carbonothioyl}-1-piperazinyl)-8-ethyl-5-oxo-5,8-dihydropyrido[2,3-d]pyrimidine-6-carboxylic acid]",None of the compounds affected the activity,None of the compounds affected the activity
,,49.9 ± 1.5,,≥ 50,,,,16.1 ± 4,,,"CCn1cc(C(=O)O)c(=O)c2cnc(N3CCN(C(=S)Nc4ccc(C)cc4)CC3)nc21 [Compound 27, 2-(4-{[(4-methylphenyl)amino]carbonothioyl}-1-piperazinyl)-8-ethyl-5-oxo-5,8-dihydropyrido[2,3-d]pyrimidine-6-carboxylic acid]",None of the compounds affected the activity,None of the compounds affected the activity
uncompetitive,Uncompetitive,8.6 ± 0.9,8.6 ± 0.9,≥ 50,,,,,,,"CCn1cc(C(=O)O)c(=O)c2cnc(N3CCN(C(=S)Nc4cccc(I)c4)CC3)nc21 [Compound 29, 2-(4-{[(3-iodophenyl)amino]carbonothioyl}-1-piperazinyl)-8-ethyl-5-oxo-5,8-dihydropyrido[2,3-d]pyrimidine-6-carboxylic acid]",None of the compounds affected the activity,None of the compounds affected the activity

Compound,mechanism of ATX inhibition (ATX [1]),Inhibition Mechanism (ATX [1]),% Response at 10 μM (FS-3) (ATX [2]) [%],single dose response comparison by aromatic substituent and position (ATX [2]),inhibition at 10 µM (ATX [2]) [%],potency relative to the lead compound (ATX [1]),Ki (ATX [3]; [4]) [nM],Ki (ATX [3]; [5]) [nM],IC50 (ATX [2]; FS-3 substrate) [µM],IC50 (ATX [2]; Substrate FS-3 (1 μM)) [µM],Ki (ATX [3]; Ki) [nM],effect on activity of NPP6 (human NPP6),effect on activity of NPP7 (human NPP7)
"CCn1cc(C(=O)O)c(=O)c2cnc(N3CCN(C(=S)Nc4cccc(C)c4)CC3)nc21 [Compound 13, 2-(4-{[(3-methylphenyl)amino]carbonothioyl}-1-piperazinyl)-8-ethyl-5-oxo-5,8-dihydropyrido[2,3-d]pyrimidine-6-carboxylic acid]",mixed-mode,Mixed,41.9 ± 0.8,,≥ 50,as potent as or significantly less potent than the lead,,13500,13.5 ± 1.3,,1700 to 13500,None of the compounds affected the activity,None of the compounds affected the activity
